Measurements: patent US7344531B2, “Thermal surgical procedures and compositions” (Regents of the University of Minnesota, priority 2003, dated 2008)
Entries after “also recorded” stand apart in the source; their conditions may differ.

How the values were obtained:
[1] = tested on: MCF-7 breast cancer cells; test: Enhancement of direct cellular injury by freeze/thaw after TNF-alpha exposure, MCF-7; type: cell-based
[2] = tested on: Human dermal microvascular endothelial cells (MVEC); test: Enhancement of direct cellular injury by freeze/thaw after TNF-alpha exposure, MVEC; type: cell-based
Protocol: Cell suspensions of human endothelial cells (MVECs) were used to assess the enhancement of direct cellular injury (DCI) by use of an adjuvant, wherein the adjuvant used is TNF-alpha.
Human dermal microvascular endothelial cells (MVEC) were prepared and grown as adherent monolayers as described by Gupta et al., Experimental Cell Research, 230:244-251 (1997), maintained in a 37° C./5% CO2/95% humidified air environment in T-flasks pre-coated with 1% gelatin in MCDB 131 medium supplemented with 20% heat-inactivated human male serum, hydrocortisone, cAMP, L-glutamine, heparin, endothelial cell growth supplement (Vec Tec, Schenectady, N.Y.) and antibiotics. […]
Control and experimental F/T groups were then assessed for cell viability at varying time points starting 3 hours after intervention. Cell viability was measured microscopically by a fluorescent dye assay (cell viability assay) by an apoptotic/necrotic assay.
The fluorescent dye assay was used to assess the plasma membrane integrity of cells immediately before (control) and after F/T using Hoechst 33342 and propidium iodide (PI). […] Cells were incubated with 9 μM Hoechst 33342 and 7 μM PI for 15 minutes at 37° C., placed on a microslide, cover-slipped and the percentage of dead cells/field determined at 200X using a fluorescent microscope (Olympus BX-50, Tokyo, Japan). […]

[3] = tested on: normal nude mouse hypodermis (normal skin); test: Cryosurgery of TNF-alpha pre-inflamed normal skin in dorsal skin flap chamber (DSFC); type: in vivo
[4] = tested on: LNCaP Pro 5 prostate cancer cells; test: Enhancement of direct cellular injury by freeze/thaw after TNF-alpha exposure, LNCaP Pro 5; type: cell-based, human
[5] = tested on: LNCaP Pro 5 human prostate cancer tumor tissue; test: Cryosurgery of TNF-alpha pre-inflamed LNCaP Pro 5 tumor in dorsal skin flap chamber (DSFC); type: in vivo, male athymic nude mice
Protocol: The dorsal skin flap chamber (DSFC) of male athymic nude mice was seeded with the tumor LNCaP […] human prostate cancer, inflamed with TNF-alpha, subjected to cryosurgery, and assessed according to the following procedure. The dorsal skin of a male athymic nude mouse was sandwiched between two identical anodized aluminum frames, a 19 millimeter (mm) by 22 mm chamber was mounted onto the mouse by three screws, the skin was attached to the chamber with 4-O silk using suture holes, and the skin on the side of the viewing region was removed, exposing the dermis containing the microvasculature on the opposite side of the skin. To provide chambers having tumors, approximately 5×10^6LNCaP […] human prostate tumor cells were mixed with MATRIGEL matrix (BD Biosciences, Bedford, Mass.) as described by Lim et al. (Prostate, 22:109-118 (1993)). Approximately 30 μl of the cell suspension was applied to the surface of the microvascular bed immediately after the initial chamber implantation and the tumor was allowed to grow for 10 days, the skin reaching a total thickness of about 450 micrometers (μm) and the tumor extending approximately 10 mm in diameter. […] After four (4) hours, the mouse was anesthetized, TNF-alpha-induced inflammation was measured by observation of leukocyte rolling, and thereafter cryosurgery was immediately performed in the inflamed tissue. […] The temperature at each thermocouple was recorded using a HYDRA DATA LOGGER SERIES 2 (Fluke, Everett, Wash.). […] The dorsal skin flap chamber was then illuminated with a mercury lamp and a FITC signal-enhancing filter (λ=470-490 nm) to view the contrast fluorescence. A Silicon Intensified Transmission camera (Hamamatsu, North Central Instruments, Twin Cities, Minn.) was used to detect the fluorescent signal, and the signal was recorded with a JVC S-VHS video recorder (JVC Company of America, Aurora, Ill.). […] The end temperature of the cryolesion and the thermal parameters within the cryosurgical ice ball were calculated according to the methods of Chao et al. (Cryobiology, 2004 (in press)). […]

[6] = TNF-alpha 10 ng/ml to 1 μg/ml for 4 to 48 hours before freeze/thaw

## TNF-alpha
[1]; [6]
  cryosensitivity of cells in vitro: increase cryosensitivity
[1]; apoptosis/necrosis assay
  necrosis of inflamed cells in vitro: increased necrosis
[2]; [6]
  cryosensitivity of cells in vitro: increase cryosensitivity
[2]; apoptosis/necrosis assay
  necrosis of inflamed cells in vitro: increased necrosis
[3]; TNF-alpha-treated normal skin
  minimum temperature required for cryo-destruction: −9.8±5.8 °C
[3]; inflamed normal skin tissues treated with TNF-alpha
  position of the edge of the static zone relative to the edge of the ice ball: stayed within the edge of the ice ball; also recorded: moved the edge of the static zone closer to the edge of the cryosurgical ice ball
[3]; normal nude mouse hypodermis treated with TNF-alpha, day 3 post cryosurgery
  radius of the edge of the static zone (zone of vascular stasis): 3.99±0.13 mm
[4]; [6]
  cryosensitivity of cells in vitro: increase cryosensitivity
[4]; apoptosis/necrosis assay
  necrosis of inflamed cells in vitro: increased necrosis
[5]; LNCaP Pro 5 tumor tissues treated with TNF-alpha
  position of the edge of the static zone relative to the edge of the ice ball: extended beyond the edge of the ice ball
[5]; day 3 post cryosurgery, LNCaP Pro 5 tumor tissue, local 0.2 ng TNF-alpha 4 hours before cryosurgery
  radius of the edge of the static zone (zone of vascular stasis): 4.07±0.34 mm
[5]; local use of TNF-alpha, LNCaP Pro 5 tumor tissue
  increase of the threshold temperature of cryo-destruction versus tissue without TNF-alpha: more than 10 °C
